Legend:
Format in all cases: binding
[1] = molecular target: T1, STARD1 (Homo sapiens, UniProt P49675); experiment: Fluorescence polarisation (FP) competition with NBD-cholesterol, STARD1; settings: single dose, Dose = 10 µM
T1 construct: STARD1(66-284); made in house; host or cells: E. coli BL21(DE3)
T1 sequence (P49675 66-284): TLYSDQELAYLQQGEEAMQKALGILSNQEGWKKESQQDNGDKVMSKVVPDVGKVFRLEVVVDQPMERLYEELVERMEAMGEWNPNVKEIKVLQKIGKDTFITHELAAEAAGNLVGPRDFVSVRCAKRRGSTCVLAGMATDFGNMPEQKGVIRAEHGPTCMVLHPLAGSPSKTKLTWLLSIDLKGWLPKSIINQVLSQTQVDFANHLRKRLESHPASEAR

[2] = molecular target: T2, Aster-A (Homo sapiens, UniProt Q96CP6); experiment: Fluorescence polarisation (FP) competition with NBD-cholesterol, Aster-A; settings: for Aster-A (FP) inhibition / inhibition at 10 µM: single dose, Dose = 10 µM
T2 construct: Aster-A(359-547); GST (PreScission-cleavable) (N, cleaved yes); made in house; host or cells: E. coli OverExpress C41
T2 sequence (Q96CP6 359-547): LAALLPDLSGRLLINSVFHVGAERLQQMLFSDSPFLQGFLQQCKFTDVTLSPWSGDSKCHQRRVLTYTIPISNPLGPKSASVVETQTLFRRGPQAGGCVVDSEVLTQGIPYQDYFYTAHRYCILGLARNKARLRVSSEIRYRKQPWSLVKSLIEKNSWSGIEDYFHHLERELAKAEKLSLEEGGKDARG
Text: (§1) Protein expression constructs
(§2) Human ASTER domains of Aster-A(359-547), -B(364-552) and -C(318-504) were subcloned into a pGEX-6p-2rbs vector, thus introducing the cloning artifact ‘GPLGS’.3 The pGEX-6P-1-GST-OSBP(377- […]
(§3) a gift from James H. Hurley (University of California).4 The pHIS_2His6_Thrombin_STARD4(2-205;C75S) plasmid was a gift from Young Jun Im (Chonnam National University).5 STARD5A was a gift from Nicola Burgess-Brown (Addgene plasmid #42392; http://n2t.net/addgene:42392; […]
(§4) Protein expression and purification […]
(§5) vectors including an N-terminal PreScission-cleavable glutathione S-transferase (GST)-tag were expressed in Escherichia coli (E. coli) OverExpress C41 in Terrific Broth (TB) medium for 16 h at 18 °C after the induction with 0.1 mM isopropyl β-D-1-thiogalactopyranoside (IPTG). Cells were harvested at 3500 × g for 15 minutes and lysed by sonication in buffer containing 50 mM HEPES pH 7.5, 300 mM NaCl, 10 %v/v glycerol, 5 mM dithiothreitol (DTT), 0.1 %v/v Triton X-100 and protease inhibitor mix HP plus (Serva). The lysate was purified by affinity chromatography on a GSTrap FF column (Cytiva) using an ÄKTA Start (Cytiva) in buffer containing 50 mM HEPES pH 7.5, 300 mM NaCl, 10 %v/v glycerol, 5 mM DTT and 0.01 %v/v Triton X-100. The GST-tag was cleaved overnight on the column at 4 °C. The Aster sterol binding domains were further purified by size-exclusion chromatography (SEC) on a HiLoad 16/600 Superdex 75 pg (Cytiva) in buffer containing 20 mM HEPES pH 7.5, 300 mM NaCl, 10 %v/v […]
(§6) STARD5(6-213) harboring an N-terminal His6-Tag were expressed in E. coli BL21(DE3) in Luria-Bertani Broth (LB) medium for approximately 16 h at 18 °C after induction with 0.15 mM IPTG. Cells were harvested at 3500 × g for 15 minutes and lysed by sonication in buffer containing 50 mM HEPES pH 7.5, 150 mM NaCl, 5 %v/v glycerol, 5 mM DTT, 0.1 %v/v Triton X -100 and ethylenediaminetetraacetic acid (EDTA)-free protease inhibitor cocktail (Sigma-Aldrich). The cleared lysate was purified by affinity chromatography on a Ni-NTA Superflow Cartridge (Qiagen) using an ÄKTA Start (Cytiva) in buffer containing 50 mM HEPES pH 7.5, 150 mM NaCl, 5 %v/v glycerol, 5 mM DTT. START domains were eluted by using elution buffer containing 50 mM HEPES pH 7.5, 150 mM NaCl, 5 %v/v glycerol, 5 mM DTT and 500 mM imidazole. Proteins were further purified by SEC on a HiLoad 16/600 Superdex 75 pg (Cytiva) in buffer containing 20 mM HEPES pH 7.5, 150 mM NaCl, 5 %v/v glycerol and 2 mM DTT.
(§7) The ORP domain of human OSBP(377-807) in the pGEX-6p-1 vector with an N-terminal PreScission-cleavable GST-tag was expressed in E. coli OverExpress C41 in LB medium for 16 h at 18 °C after induction with 0.1 mM IPTG. Cells were harvested at 3500 × g for 15 minutes and lysed by sonication in buffer containing 20 mM HEPES pH 7.5, 300 mM NaCl, 10 %v/v glycerol, 5 mM DTT, 0.1 %v/v Triton X-100 and EDTA-free protease inhibitor cocktail (Sigma-Aldrich). The cleared lysate was purified by affinity chromatography on a GSTrap HF column (Cytiva) using an ÄKTA Start (Cytiva) in buffer containing 20 mM HEPES pH 7.5, 300 mM NaCl, 10 %v/v glycerol, 5 mM DTT. OSBP(377 -807) was eluted by using elution buffer containing 20 mM HEPES pH 7.5, 300 mM NaCl, 10 %v/v glycerol, 5 mM DTT and 10 mM reduced glutathione. Proteins were further purified by SEC on a HiLoad 16/600 Superdex 75 pg (Cytiva) using an ÄKTA Explorer (Cytiva) in buffer containing 20 mM HEPES pH 7.5, 150 mM NaCl, 10 %v/v glycerol and 2 mM DTT.
(§8) The ORP domains of human ORP1(534-950) in pET24b(+) and ORP2(49-480) in the pET24b(+) vector including an N-terminal His6-Tag were expressed in E. coli BL21(DE3) in TB medium for approximately 16 h at 18 °C after induction with 0.1 mM IPTG. Cells were collected at 3500 × g for 15 minutes and lysed by sonification in buffer containing 10 mM Tris-HCl pH 8, 300 mM NaCl, 5 % glycerol, 2 mM DTT, 0.1 % Triton X-100 and EDTA-free protease inhibitor cocktail (Sigma-Aldrich). The cleared […]

[3] = molecular target: T3, Aster-B (Homo sapiens, UniProt Q3KR37); experiment: Fluorescence polarisation (FP) competition with NBD-cholesterol, Aster-B; settings: for Aster-B (FP) inhibition / inhibition at 10 µM: single dose, Dose = 10 µM
T3 construct: -B(364-552); GST (PreScission-cleavable) (N, cleaved yes); made in house; host or cells: E. coli OverExpress C41
T3 sequence (Q3KR37 364-552): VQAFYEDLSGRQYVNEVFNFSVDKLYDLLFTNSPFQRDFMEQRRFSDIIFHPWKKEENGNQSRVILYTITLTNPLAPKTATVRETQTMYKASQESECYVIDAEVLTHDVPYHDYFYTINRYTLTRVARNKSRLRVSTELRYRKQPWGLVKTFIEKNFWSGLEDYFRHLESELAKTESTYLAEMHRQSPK
Text: as §1, §2, §3, §4, §5, §6, §7, §8

[4] = mean of three experiments run in technical duplicates

Structure (SMILES)	STARD1 (FP) inhibition [1]	Aster-A (FP) inhibition [2]	Aster-B (FP) inhibition [3]	inhibition at 10 µM [1]	inhibition at 10 µM [2]	inhibition at 10 µM [3]	IC50 [2, 4]	IC50 [3, 4]
Cc1nc2c(s1)CC[C@@H]1C[C@H](O)CC[C@]21C [Compound 8b]	8%	-1%	7.5%					
C[C@]12CC[C@@H](O)C[C@H]1CCc1sc(-c3cccnc3)nc12 [Compound 8c]	-1.67%	0%	7%					
COc1ccc(-c2nc3c(s2)CC[C@@H]2C[C@H](O)CC[C@]32C)cc1 [Compound 8d]				42%	-1%	6%		
C[C@]12CC[C@@H](O)C[C@H]1CCc1sc(-c3ccc(F)cc3)nc12 [Compound 8e]	17%	-3%	8%					
C[C@]12CC[C@@H](O)C[C@H]1CCc1[nH]c(-c3ccccc3)nc12 [Compound 9]				10%	-2%	9%		
C[C@]12CC[C@@H](O)C[C@H]1CCc1c2[nH]c2ccccc12 [Compound 10a]	35%	1%	7.5%					
C[C@]12CC[C@@H](O)C[C@H]1CCc1c2[nH]c2ccc(Br)cc12 [Compound 10b]	-23%	-9%	-2.5%					
C[C@]12CC[C@@H](O)C[C@H]1CCc1c2[nH]c2ccc(Cl)cc12 [Compound 10c]	-12%	1%	-5%					
C[C@]12CC[C@@H](O)C[C@H]1CCc1c2[nH]c2ccc(F)cc12 [Compound 10d]	90%	-8%	0.833%					
Cc1ccc2[nH]c3c(c2c1)CC[C@@H]1C[C@H](O)CC[C@]31C [Compound 10e]				-3.33%	-4%	1.67%		
COc1ccc2[nH]c3c(c2c1)CC[C@@H]1C[C@H](O)CC[C@]31C [Compound 10f]				-1.67%	0%	13%		
CC12CCC(O)CC1CCc1c2[nH]c2ccc(C(F)(F)F)cc12 (centres unmarked) [Compound 10g]				-35%	-8%	-2.5%		
C[C@]12CC[C@@H](O)C[C@H]1CCc1c2[nH]c2ccc(I)cc12 [Compound 10h]	15%	7%	32%					
C[C@]12CC[C@@H](O)C[C@H]1CCc1c2[nH]c2c(F)cc(Cl)cc12 [Compound 10i]				-13%	-8%	-4%		
Cc1cc(C)c2c3c([nH]c2c1)[C@@]1(C)CC[C@@H](O)C[C@H]1CC3 [Compound 10j]				17%	-2%	16%		
CCOC(=O)c1ccc2[nH]c3c(c2c1)CC[C@@H]1C[C@H](O)CC[C@]31C [Compound 10k]	-12%	1%	-4%					
C[C@]12CC[C@@H](O)C[C@H]1CCC(=O)c1ccccc1NC2=O [Compound 11a]	7%	-1%	10%					
C[C@]12CC[C@@H](O)C[C@H]1CCC(=O)c1cc(Br)ccc1NC2=O [Compound 11b]				0%	1%	7.5%		
Cc1ccc2c(c1)C(=O)CC[C@@H]1C[C@H](O)CC[C@]1(C)C(=O)N2 [Compound 11c]				25%	-4%	6%		
COc1ccc2c(c1)C(=O)CC[C@@H]1C[C@H](O)CC[C@]1(C)C(=O)N2 [Compound 11d]				5%	-1%	4%		
C[C@]12CC[C@@H](O)C[C@H]1CCC(=O)c1cc(C(F)(F)F)ccc1NC2=O [Compound 11e]				10%	-2%	7%		
C[C@]12CC[C@@H](O)C[C@H]1CCC(=O)c1cc(Cl)cc(F)c1NC2=O [Compound 11f]	-3.33%	-1%	11%					
Cc1cc(C)c2c(c1)NC(=O)[C@@]1(C)CC[C@@H](O)C[C@H]1CCC2=O [Compound 11g]				-8%	0%	11%		
Cc1ccc2[nH]c3c(c(=O)c2c1)C[C@@H]1C[C@H](O)CC[C@]31C [Compound 12]				5%	-1%	11%		
Cc1ccc2c(c1)[C@]1(O)CC[C@@H]3C[C@H](O)CC[C@]3(C)C1=N2 [Compound 14a]				17%	3%	12%		
COc1ccc2c(c1)[C@]1(O)CC[C@@H]3C[C@H](O)CC[C@]3(C)C1=N2 [Compound 14b]				10%	8%	17%		
Cc1cc(C)c2c(c1)N=C1[C@@]2(O)CC[C@@H]2C[C@H](O)CC[C@]12C [Compound 14c]				10%	2%	17%		
C[C@]12CC[C@@H]3C[C@H]1CC[C@@]21C(=Nc2ccccc21)O3 [Compound 15a]				18%	43%	13%	7.17 µM	> 80 µM
